In brackets after ≈: the same amount, converted by molar mass. Activity calls are given as the source filed them. The calls are words filed in the database; no cut-off is given here.
Legend:
[1] = system: Staphylococcus aureus; assay: Antibacterial activity against Staphylococcus aureus ATCC 29213 measured after 24 hrs by microplate reader analysis; type: functional
[2] = system: Staphylococcus aureus; assay: Antibacterial activity against methicillin-resistant Staphylococcus aureus N315 measured after 24 hrs by microplate reader analysis; type: functional
[3] = system: Staphylococcus aureus; assay: Antibacterial activity against methicillin-resistant Staphylococcus aureus NCTC 10442 measured after 24 hrs by microplate reader analysis; type: functional
[4] = Hemolytic activity in rabbit erythrocytes measured after 1 hr by microplate reader analysis; type: ADME, cell-based, Oryctolagus cuniculus, Erythrocyte
[5] = Selectivity index, ratio of HC50 for rabbit erythrocytes to MIC for Staphylococcus aureus ATCC 29213; type: toxicity; details: read-out: Selectivity Index
[6] = Selectivity index, ratio of HC50 for rabbit erythrocytes to MIC for methicillin-resistant Staphylococcus aureus N315; type: toxicity; details: read-out: Selectivity Index
[7] = Selectivity index, ratio of HC50 for rabbit erythrocytes to MIC for methicillin-resistant Staphylococcus aureus NCTC 10442; type: toxicity; details: read-out: Selectivity Index
[8] = Hemolytic activity in rabbit erythrocytes assessed as hemolysis at 200 ug/ml measured after 1 hr by microplate reader analysis relative to control; type: ADME, cell-based, Oryctolagus cuniculus, Erythrocyte; details: at 200 µg/mL, read-out: Activity
[9] = system: Staphylococcus aureus; assay: Bactericidal activity against Staphylococcus aureus ATCC 29213 assessed as log reduction in bacterial count at 8 times MIC preincubated for 1 hr followed by replating on MHA medium measured after 24 hrs by time kill assay; type: functional; details: time 25 hrs
[10] = system: Staphylococcus aureus; assay: Bactericidal activity against Staphylococcus aureus ATCC 29213 assessed as log reduction in bacterial count at 4 times MIC preincubated for 4 hrs followed by replating on MHA medium measured after 24 hrs by time kill assay; type: functional; details: time 28 hrs
[11] = system: Staphylococcus aureus; assay: Antibacterial activity against Staphylococcus aureus ATCC 29213 at 0.5 times MIC passaged daily for 21 days; type: functional, organism-based; details: time 21.0 day
[12] = system: Cell membrane; assay: Induction of inner membrane permeabilization in Staphylococcus aureus ATCC 29213 measured for 1 hr by SYTOX green dye based fluorescence assay; type: subcellular
[13] = system: Cell membrane; assay: Induction of inner membrane permeabilization in methicillin-resistant Staphylococcus aureus NCTC 10442 measured for 1 hr by SYTOX green dye based fluorescence assay; type: subcellular
[14] = system: Cell membrane; assay: Disruption of cell membrane integrity in Staphylococcus aureus ATCC 29213 assessed as increase in red fluorescence at 8 times MIC measured after 2 hrs by Syto9/propidium iodide Live/dead staining based laser confocal microscopic analysis; type: subcellular
[15] = system: Cell membrane; assay: Induction of cell membrane damage in Staphylococcus aureus ATCC 29213 assessed as wrinkle formation at 8 times MIC measured after 2 hrs by SEM analysis; type: subcellular
[16] = system: Cell membrane; assay: Induction of cell membrane damage in Staphylococcus aureus ATCC 29213 assessed as membrane perforation at 8 times MIC measured after 2 hrs by SEM analysis
[17] = system: Cell membrane; assay: Induction of cell membrane damage in Staphylococcus aureus ATCC 29213 assessed as membrane perforation at 8 times MIC measured after 2 hrs by TEM analysis
[18] = system: Staphylococcus aureus; assay: Antibacterial activity against Staphylococcus aureus ATCC 29213 measured after 24 hrs in presence of LTA by microplate reader analysis; type: functional
[19] = system: Staphylococcus aureus; assay: Antibacterial activity against methicillin-resistant Staphylococcus aureus NCTC 10442 measured after 24 hrs in presence of LTA by microplate reader analysis; type: functional
[20] = system: Bacillus subtilis; assay: Displacement of BODIPYTM-TR-cadaverine from Bacillus subtilis LTA at MIC measured after 30 mins by fluorescence assay relative to control
[21] = system: Bacillus subtilis; assay: Displacement of BODIPYTM-TR-cadaverine from Bacillus subtilis LTA at 2 times MIC measured after 30 mins by fluorescence assay relative to control
[22] = system: Bacillus subtilis; assay: Displacement of BODIPYTM-TR-cadaverine from Bacillus subtilis LTA at 4 times MIC measured after 30 mins by fluorescence assay relative to control
[23] = system: Bacillus subtilis; assay: Displacement of BODIPYTM-TR-cadaverine from Bacillus subtilis LTA at 8 times MIC measured after 30 mins by fluorescence assay relative to control
[24] = Cytotoxicity against mouse corneal epithelial cells assessed as cell viability at […] ug/ml measured after 24 hrs by CCK8 assay relative to control; type: cell-based; details: dose 1.56 µg/ml, read-out: Activity
[25] = Cytotoxicity against mouse corneal epithelial cells assessed as cell viability at 3.125 ug/ml measured after 24 hrs by CCK8 assay relative to control; type: cell-based; details: at 3.125 µg/mL, read-out: Activity
[26] = Cytotoxicity against mouse corneal epithelial cells assessed as cell viability at 6.25 ug/ml measured after 24 hrs by CCK8 assay relative to control; type: cell-based; details: at 6.25 µg/mL, read-out: Activity
[27] = Cytotoxicity against mouse corneal epithelial cells assessed as cell viability at 12.5 ug/ml measured after 24 hrs by CCK8 assay relative to control; type: cell-based; details: at 12.5 µg/mL, read-out: Activity
[28] = Cytotoxicity against mouse corneal epithelial cells assessed as cell viability […] measured after 24 hrs by CCK8 assay relative to control; type: cell-based; details: dose 25 µg/ml, read-out: Activity
[29] = Cytotoxicity against mouse corneal epithelial cells assessed as cell viability at 50 ug/ml measured after 24 hrs by CCK8 assay relative to control; type: cell-based; details: at 50 µg/mL, read-out: Activity
[30] = Cytotoxicity against mouse corneal epithelial cells assessed as cell viability at 100 ug/ml measured after 24 hrs by CCK8 assay relative to control; type: cell-based; details: at 100 µg/mL, read-out: Activity
[31] = Cytotoxicity against mouse J774.A1 cells assessed as cell viability at […] ug/ml measured after 24 hrs by CCK8 assay relative to control; type: cell-based; details: dose 1.56 µg/ml, read-out: Activity
[32] = Cytotoxicity against mouse J774.A1 cells assessed as cell viability at 3.125 ug/ml measured after 24 hrs by CCK8 assay relative to control; type: cell-based; details: at 3.125 µg/mL, read-out: Activity
[33] = Cytotoxicity against mouse J774.A1 cells assessed as cell viability at 6.25 ug/ml measured after 24 hrs by CCK8 assay relative to control; type: cell-based; details: at 6.25 µg/mL, read-out: Activity
[34] = Cytotoxicity against mouse J774.A1 cells assessed as cell viability at 12.5 ug/ml measured after 24 hrs by CCK8 assay relative to control; type: cell-based; details: at 12.5 µg/mL, read-out: Activity
[35] = Cytotoxicity against mouse J774.A1 cells assessed as cell viability at 25 ug/ml measured after 24 hrs by CCK8 assay relative to control; type: cell-based; details: at 25 µg/mL, read-out: Activity
[36] = Cytotoxicity against mouse J774.A1 cells assessed as cell viability at 50 ug/ml measured after 24 hrs by CCK8 assay relative to control; type: cell-based; details: at 50 µg/mL, read-out: Activity
[37] = Cytotoxicity against mouse J774.A1 cells assessed as cell viability at 100 ug/ml measured after 24 hrs by CCK8 assay relative to control; type: cell-based; details: at 100 µg/mL, read-out: Activity
[38] = Cytotoxicity against mouse corneal epithelial cells assessed as reduction in cell viability measured after 24 hrs by CCK8 assay; type: cell-based
[39] = Cytotoxicity against mouse J774.A1 cells assessed as reduction in cell viability measured after 24 hrs by CCK8 assay; type: cell-based
[40] = system: Staphylococcus aureus; assay: (§1) Antibacterial activity against Staphylococcus aureus ATCC 29213 infected in cyclophosphamide-immunosuppressed C57BL6 mouse cornea assessed as log reduction in corneal bacterial count at 0.5% administered as topical solution for 4 times per day for 3 days and measured post-last dose by standard plate counting method; type: functional; details: time 3 day
[41] = Toxicity in C57BL6 mouse assessed as corneal damage at 0.5% administered as topical solution for 4 times per day for 3 days and measured post-last dose by fluorescein sodium staining based slit-lamp biomicroscopic method; details: in vivo, topical_or_ocular, 72 h, time 3 day
[42] = system: Staphylococcus aureus; assay: Bactericidal activity against Staphylococcus aureus ATCC 29213 assessed as log reduction in bacterial count at 8 times MIC preincubated for 4 hrs followed by replating on MHA medium measured after 24 hrs by time kill assay; type: functional; details: time 28 hrs
[43] = system: Staphylococcus aureus; assay: as §1, with “5%” for “0.5%”; type: functional; details: time 3 day

For `CC(C)=CCn1c2ccccc2c2c(OCC(O)CNC(=N)N)cccc21` (centres undefined), the MIC [1] was 1.56 µg/mL (≈ 4.26 µM), the MIC [2] was 0.78 µg/mL (≈ 2.13 µM) and the MIC [3] was 1.56 µg/mL (≈ 4.26 µM). For the same molecule, the HC50 at 1 h [4] was over 200 µg/mL, the selectivity ratio [5] was over 128 and the selectivity ratio [6] was over 128. The selectivity ratio [7] was over 128, the hemolysis at 1 h, 200 ug/ml [8] was 3.5% and the “log(activity)” value [9] was 3.21. For the same molecule, the “log(activity)” value [10] was 3.45, the Activity [11] was “Active” and the Activity [12] was “Dose-dependent effect”. For the same molecule, the Activity [13] was “Dose-dependent effect”, the Activity [14] was “Active” and the Activity [15] was “Active”. For the same molecule, the Activity [16] was “Active”, the Activity [17] was “Active” and the MIC [18] was 1.56 µg/mL. For the same molecule, the MIC [19] was 1.56 µg/mL, the inhibition [20] was 12.9% and the inhibition [21] was 22.3%. The inhibition [22] was 28.8%, the inhibition [23] was 35.8% and the viability at 24 h, 1.56 ug/ml [24] was 88.3%. It also gave a viability at 24 h, 3.125 ug/ml [25] of 87.9%, a viability at 24 h, 6.25 ug/ml [26] of 85.3% and a viability at 24 h, 12.5 ug/ml [27] of 75.1%. The viability at 24 h [28] was 34.1%, the viability at 24 h, 50 ug/ml [29] was 8.52% and the viability at 24 h, 100 ug/ml [30] was 6.65%. The viability at 24 h, 1.56 ug/ml [31] was 96.3%, the viability at 24 h, 3.125 ug/ml [32] was 95% and the viability at 24 h, 6.25 ug/ml [33] was 86.2%. It also gave a viability at 24 h, 12.5 ug/ml [34] of 80.5%, a viability at 24 h, 25 ug/ml [35] of 78.2% and a viability at 24 h, 50 ug/ml [36] of 28.1%. The viability at 24 h, 100 ug/ml [37] was 20.5%, the CC50 at 24 h [38] was 23.8 µg/mL (≈ 65 µM) and the CC50 at 24 h [39] was 37.2 µg/mL (≈ 102 µM). For the same molecule, the “log(activity)” value [40] was 4.17 and the Activity [41] was “Non-Toxic”.

In the case of `CN[C@H](CC(C)C)C(=O)N[C@H]1C(=O)N[C@@H](CC(N)=O)C(=O)N[C@H]2C(=O)N[C@H]3C(=O)N[C@H](C(=O)N[C@H](C(=O)O)c4cc(O)cc(O)c4-c4cc3ccc4O)[C@H](O)c3ccc(c(Cl)c3)Oc3cc2cc(c3O[C@@H]2O[C@H](CO)[C@@H](O)[C@H](O)[C@H]2O[C@H]2C[C@](C)(N)[C@H](O)[C@H](C)O2)Oc2ccc(cc2Cl)[C@H]1O` [VANCOMYCIN], the MIC [1] is reported as 0.78 µg/mL (≈ 0.538 µM), the MIC [2] is reported as 1.56 µg/mL (≈ 1.08 µM) and the MIC [3] is reported as 1.56 µg/mL (≈ 1.08 µM). For the same molecule, the “log(activity)” value [10] was 0.71, the “log(activity)” value [42] was 1.45 and the viability at 24 h, 1.56 ug/ml [31] was 101%. For the same molecule, the viability at 24 h, 3.125 ug/ml [32] was 99.8%, the viability at 24 h, 6.25 ug/ml [33] was 99.5% and the viability at 24 h, 12.5 ug/ml [34] was 98.2%. It also gave a viability at 24 h, 25 ug/ml [35] of 92%, a viability at 24 h, 50 ug/ml [36] of 91% and a viability at 24 h, 100 ug/ml [37] of 89.9%. For the same molecule, the “log(activity)” value [43] was 3.99.
